In patent US12617770B2, “IRAK inhibitor and preparation method therefor and use thereof” (WUHAN CREATERNA SCIENCE AND TECHNOLOGY CO., LTD., priority 2019, dated 2026):

Key:
[1] = Pharmacokinetic study, single oral gavage dosing; type: in vivo; settings: mouse, 40 mg/kg, 40 mpk, 15% solutol HS15 + 85% PBS, ICR mice, plasma; for AUC(0-t): read-out: Area under curve AUC0-t; for AUC(0-inf): read-out: Area under curve AUC0-∞; for MRT: read-out: Average retention time MRT; for half-life: read-out: Half life t1/2 (converted); for Cmax: read-out: Peak concentration Cmax; for Tmax: read-out: Time to peak tmax
CYP3A4 = target: T1, CYP3A4 (Homo sapiens, UniProt P08684); test: CYP450 inhibition in human liver microsomes, CYP3A4-M; type: in vitro ADME; settings: pooled (mixed) human liver microsomes, probe midazolam; human liver microsomes, midazolam; read-out: CYP3A4 IC50
T1 construct: The test compounds were co-incubated with the human liver microsomes and a probe substrate midazolam (CYP3A4); tissue Corning (USA); host or cells: mixed (pooled) human liver microsomes
T1 sequence (P08684 whole entry): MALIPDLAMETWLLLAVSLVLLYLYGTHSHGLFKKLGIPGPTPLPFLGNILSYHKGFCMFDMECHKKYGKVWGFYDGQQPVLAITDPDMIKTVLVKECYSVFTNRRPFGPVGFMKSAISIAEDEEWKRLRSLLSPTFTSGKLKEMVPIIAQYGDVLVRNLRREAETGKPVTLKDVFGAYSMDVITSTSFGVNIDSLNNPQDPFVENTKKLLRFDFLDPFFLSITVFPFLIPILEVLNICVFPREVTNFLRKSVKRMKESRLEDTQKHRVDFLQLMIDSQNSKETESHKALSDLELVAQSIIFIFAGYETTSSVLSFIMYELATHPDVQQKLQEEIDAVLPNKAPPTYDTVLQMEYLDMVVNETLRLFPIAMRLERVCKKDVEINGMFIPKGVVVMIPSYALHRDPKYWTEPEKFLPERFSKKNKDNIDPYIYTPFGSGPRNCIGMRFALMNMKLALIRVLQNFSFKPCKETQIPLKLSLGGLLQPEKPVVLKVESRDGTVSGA
Procedure: This study was intended to investigate the inhibitory effect of the test compounds on 5 major enzymes in human P450 superfamily, CYP1A2, 2C9, 2C19, 2D6 and 3A4-M. The mixed human liver microsomes used in this assay were purchased from Corning (USA). The test compound (compound 14) was co-incubated at 7 concentrations with human liver microsomes and five probe substrates (phenacetin for CYP1a2, diclofenac for CYP2C9, mephenytoin for CYP2C19, dextromethorphan for CYP2D6, midazolam for CYP3A4-M, mixed). The reaction was initiated by adding coenzyme NADPH, and terminated by adding acetonitrile containing internal standard. After the proteins were precipitated, the supernatant was centrifuged. The characteristic metabolites in the supernatant (acetaminophen for CYP1A2, 4-hydroxydiclofenac for CYP2C9, 4-hydroxymephenytoin for CYP2C19, dextrorphan for CYP2D6, 1-hydroxymidazolam for CYP3A4-M) were analyzed by LC-MS/MS. The influence of the test compounds on production of the characteristic metabolites was finally analyzed on the basis of the data obtained. A selective inhibitor (ketoconazole for CYP3A4-M) may be used as positive control. All samples were tested in duplicate.

human IRAK4 = target: T2, human IRAK4 (Homo sapiens, UniProt Q9NWZ3); test: IRAK4 MSA (Mobility-Shift Assay) at Km concentration of ATP; type: biochemical; settings: GST-IRAK4 1 nM, ATP 37 μM (Km); read-out: IC50 for inhibiting human IRAK4 activity
T2 construct: purchased Cama (so in the source)
T2 sequence (Q9NWZ3 1-460): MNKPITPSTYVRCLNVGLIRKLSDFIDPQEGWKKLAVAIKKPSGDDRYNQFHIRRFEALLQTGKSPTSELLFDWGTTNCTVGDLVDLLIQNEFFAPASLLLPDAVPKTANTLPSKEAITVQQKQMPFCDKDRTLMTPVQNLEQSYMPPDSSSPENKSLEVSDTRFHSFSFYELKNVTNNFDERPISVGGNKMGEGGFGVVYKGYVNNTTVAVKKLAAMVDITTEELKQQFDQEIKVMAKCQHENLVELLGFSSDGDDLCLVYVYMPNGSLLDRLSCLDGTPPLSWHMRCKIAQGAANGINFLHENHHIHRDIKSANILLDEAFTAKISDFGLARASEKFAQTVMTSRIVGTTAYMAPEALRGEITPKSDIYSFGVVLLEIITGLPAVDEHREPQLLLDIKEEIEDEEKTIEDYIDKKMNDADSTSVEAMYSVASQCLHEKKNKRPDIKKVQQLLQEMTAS
Procedure: A recombinant fusion protein of N-terminal GST (glutathione-S-transferase) and human IRAK4 was used as enzyme (GST-IRAK4, kinase IRAK4 (Cama, CAT No. 09-145)) at a final concentration of 1 nM; ATP (Sigma. CAT No. A7699-1G) was at a final concentration of 37 μM; • the substrates used for the kinase reaction were 5-FAM (5-carboxyfluorescein)-labeled polypeptide (5-FAM-[…]-COOH) and substrate peptide FAM-P8 (GL Biochem, CAT No. 112396) at final concentrations of 5 μM.
In this assay, 500 μM stock solutions of the compounds were prepared in 100% DMSO, and serially 4-fold diluted to the 10th concentration gradient with 100% DMSO, followed by a 10-fold dilution in the compound buffer (50 mM HEPES, pH 7.5, 0.00015% Brij-35) to give intermediate dilutions of the compounds at a final concentration of 10 μM−0.04 nM containing 10% DMSO. 5 μL of the intermediate dilution was transferred into a black 384-well plate.
IRAK4 was diluted to 2.5 nM in the kinase buffer (50 mM HEPES, pH 7.5, 0.00015% Brij-35, 2 mM DTT). 10 μL of the IRAK4 dilution was transferred to the 384-well plate and co-incubated with the compound for 10-15 min.
The substrate and ATP were diluted to 12.5 μM and 92.5 μM with reaction buffer (50 mM HEPES, pH 7.5, 0.00015% Brij-35, 10 mM MgCl2), respectively. 10 μL of the dilution was transferred to a 384-well plate and incubated at 28° C. for 1 h. The reaction was terminated by adding 25 μL of 50 mM EDTA to the 384-well plate.
The inhibition rate of IRAK4 by the compounds was calculated by measuring the rate of phosphorylated substrate using a Caliper EZ Reader (PerkinElmer) and the IC50 was calculated by XL-fit software. […] In particular, some exemplary compound activity values are as follows: […]

TNF-α release = test: Inhibition of cytokine TNF-α release in LPS-induced Balb/c female mice; type: in vivo; settings: oral gavage 16 h before LPS (i.p. 0.2 mg/kg); serum 1.5 h after stimulation
Procedure: Female Balb/c mice were randomized into groups, each containing 4 mice, including a control+vehicle group, a model+vehicle group, a model+reference group and model+compound groups. The control animals received an intraperitoneal injection of normal saline (10 mL/kg) and the model animals received LPS stimulation (Sigma CAT #L2630, i.p., 10 mL/kg, 0.2 mg/kg). To the test compounds, DMSO, Solutol and 10 mM PBS were sequentially added to prepare a solution or suspension of required concentration for administration. For the vehicle, DMSO, Solutol and 10 mM PBS were mixed in a volume ratio of 5:15:80. The animals were administered through oral gavage (10 mL/kg) 16 h before LPS (or saline) stimulation at predetermined doses, and euthanized with CO2 at 1.5 h after the stimulation for cardiac blood collection. The whole blood was not anticoagulated, incubated in wet ice for 1.5 h, and centrifuged at 2000×g at 4° C. for 10 min to separate the serum. Serum was frozen at −80° C. for TNF-α assay. Quantification of TNF-α was done by TNF-α ELISA kit according to the manufacturer's instructions. The readings of absorbance at A450 were measured with a microplate reader SpectraMax i3x (Molecular Device) for calculating the inhibition of the compounds, and IC50 was calculated with GraphPad Prism 7.0 software. […] In particular, some exemplary compound inhibition rate values are as follows: […]

AUC(0-t) [1] [µg·h/mL] | AUC(0-inf) [1] [µg·h/mL] | MRT [1] [h] | half-life [1] [h] | Cmax [1] [ng/mL] | Tmax [1] [h] | IC50 (CYP3A4) [nM] | IC50 (human IRAK4) [nM] | Compound | Inhibition rate (%) of TNF-α (TNF-α release) [%]
294 | 375 | 15.3 | 11.5 | 24200 | 4 | > 30000 | 6 | COc1cc2nn([C@H]3CC[C@](C)(O)CC3)cc2cc1NC(=O)c1cccc(C)[n+]1[O-] [Compound 001, 2-((2-((1r,4r)-4-hydroxy-4-methylcyclohexyl)-6-methoxy-2H-indazol-5-yl)carbamoyl)-6-methylpyridine 1-oxide] | 74.00
207 | 207 | 6.75 | 3.62 | 25900 | 4 | > 30000 | 23 | COc1cc2nn(CCC(C)(C)O)cc2cc1NC(=O)c1cccc(C)[n+]1[O-] [Compound 163, 2-((2-(3-hydroxy-3-methylbutyl)-6-methoxy-2H-indazol-5-yl)carbamoyl)-6-methylpyridine 1-oxide] | 71.56
